As a reminder, the melting point is the temperature of the solid-liquid transition. With `Cc1nccc(N2CCC(CN3CCN(C(=O)c4ccc(F)cc4)CC3)CC2)n1` [Example 8, 1-(4-fluorobenzoyl)-4-[1-(2-methyl-4-pyrimidinyl)-4-piperidylmethyl]piperazine], the melting point was 127 to 128 °C.
Then `O=S(=O)(c1ccc(Br)cc1)N1CCN(CC2CCN(c3ccncc3)CC2)CC1` [Example 19, 1-(4-bromophenylsulphonyl)-4-[1-(4-pyridyl)piperidin-4-ylmethyl]piperazine], with 179 to 180 °C.
In the case of `O=S(=O)(c1ccc(Br)cc1)N1CCC(CN2CCC(c3ccncc3)CC2)CC1` [Example 3, 1-(4-bromophenylsulphonyl)-4-[4-(4-pyridyl)-1-piperidylmethyl]piperidine], the melting point lay within 163 to 164 °C.
`Cc1nccc(N2CCC(O)(CN3CCN(C(=O)c4ccc(F)cc4)CC3)CC2)n1` [Example 15, 1-(4-fluorobenzoyl)-4-[1-(2-methylpyrimidin-4-yl]-4-hydroxy-4-piperidylmethyl]piperazine]: the melting point was 114 to 117 °C.
Then `Cc1nccc(N2CCN(CC3CCN(S(=O)(=O)c4ccc(Cl)cc4)CC3)CC2)n1` [Example 1, 1-(4-chlorophenylsulphonyl)-4-[1-(2-methylpyrimidin-4-yl)piperazin-4ylmethyl]piperidine], with 191 to 193 °C (dec.); and `O=S(=O)(c1ccc(Br)cc1)N1CCN(CC2CCN(c3ccncc3Cl)CC2)CC1` [Example 20, 1-(4-bromophenylsulphonyl)-4-[1-(3-chloro-4-pyridyl)piperidin-4-ylmethyl]piperazine], with 158 to 159 °C; and `Cc1cc(N2CCC(CN3CCN(S(=O)(=O)c4ccc(Cl)cc4)CC3)CC2)nc(C)n1` [Example 11, 1-(4-chlorophenylsulphonyl)-4-[1-(2,6-dimethylpyrimidin-4-yl)-4-piperidylmethyl]piperazine], with 73 to 74 °C.

The record behind these values is US6335341B1, “Pyridyl-and pyrimidyl-heterocyclic compounds inhibiting oxido squalene-cyclase” (Zeneca Limited, priority 1997, dated 2002).
